Five compounds from paper PMC11642044 (International Journal of Molecular Sciences, 2024) can be followed below.

Assay [1] deals with primary astrocytes. The assay can be described thus: LIF secretion (ELISA), primary astrocytes. The class given is cell-based, mouse. Here is the method:
HEK293, U87-MG, 1321N1, SK-N-SH, and SK-N-MC cells were cultured in MEM supplemented with 10% (vol/vol) fetal bovine serum (FBS), 50 U/mL penicillin, and 50 μg/mL streptomycin. Primary astrocyte cultures were prepared from the cerebral cortexes of neonatal mice (P2). The cerebral hemispheres were isolated and transferred to ice-cold Hank’s buffer, and the meninges were carefully removed. Tissues were then minced into approximately 1 mm pieces, triturated, filtered through a 60 µm nylon screen, and collected by centrifugation at approximately 3000× g for 5 min. The cell pellets were dispersed with a pipette and resuspended in a medium containing 10% (vol/vol) FBS in low-glucose Dulbecco’s modified Eagle’s medium. After trituration, the cells were filtered through a 10 µm screen and then plated into 6-well plates at a density of 3 × 10^5 cells/mL and cultured for about 10 days. The medium was replaced twice per week. Dibutyryl cyclic adenosine monophosphate (DBcAMP; 0.15 mM, Sigma, St Louis, MO, USA) was added to induce differentiation when the cells were grown to 95% confluence. […]
Conditioned media were analyzed for the presence of multiple cytokines by using the cytokine multiplex assay kits (Merck Millipore, MA, USA) as previously described. […] The detection beads were then washed again and resuspended in 120 μL of reading buffer. […]
Background: An ELISA detects its analyte on a solid surface through an enzyme-linked reagent.

The test system of assay [2] is U87-MG cells. Kind of assay: Intracellular Ca2+ mobilization by Gq-coupled receptor agonists (FLIPR, Fluo-4), U87-MG. The class given is cell-based, human. The protocol: (§1) Cells were seeded in 96-well plates (clear bottom and black wall) at 2.5 × 10^4 cells per well on the day before assay. The cells (~80–100% confluence) were then washed with Hank’s balanced salt solution (HBSS) and aspirated, followed by addition of 100 μL of FLIPR labeling dye (containing Fluo-4 and probenecid in HBSS) to each well before incubation at 37 °C for 1 h. Finally, the 96-well plate containing the labeled cells was transferred to the FLIPR (Molecular Devices, San Jose, CA, USA), and 50 μL of HBSS (with or without agonists) was added to each well. The fluorescent signals that reflect the intracellular Ca^2+ transients were monitored by an excitation wavelength of 488 nm, and detection was undertaken with an emission wavelength from 510 to 570 nm for 3 min upon the drug treatments, as described previously.
For orientation: Calcium flux is commonly read through the fluorescence of an indicator in the cells.

The test system of a further assay is 1321-N1 cells. Kind of assay: Intracellular Ca2+ mobilization by Gq-coupled receptor agonists (FLIPR, Fluo-4), 1321-N1. Type of assay: cell-based, human. The protocol: as §1
The subject of assay [3] is primary astrocytes. The assay can be described thus: Intracellular Ca2+ mobilization by Gq-coupled receptor agonists (FLIPR, Fluo-4), primary cortical astrocytes. The following applies: 10 μM agonist, n = 4. The class given is cell-based, mouse. The protocol:
HEK293, U87-MG, 1321N1, SK-N-SH, and SK-N-MC cells were cultured in MEM supplemented with 10% (vol/vol) fetal bovine serum (FBS), 50 U/mL penicillin, and 50 μg/mL streptomycin. Primary astrocyte cultures were prepared from the cerebral cortexes of neonatal mice (P2). The cerebral hemispheres were isolated and transferred to ice-cold Hank’s buffer, and the meninges were carefully removed. Tissues were then minced into approximately 1 mm pieces, triturated, filtered through a 60 µm nylon screen, and collected by centrifugation at approximately 3000× g for 5 min. The cell pellets were dispersed with a pipette and resuspended in a medium containing 10% (vol/vol) FBS in low-glucose Dulbecco’s modified Eagle’s medium. After trituration, the cells were filtered through a 10 µm screen and then plated into 6-well plates at a density of 3 × 10^5 cells/mL and cultured for about 10 days. The medium was replaced twice per week. Dibutyryl cyclic adenosine monophosphate (DBcAMP; 0.15 mM, Sigma, St Louis, MO, USA) was added to induce differentiation when the cells were grown to 95% confluence. Primary mouse cortical neuronal cultures were obtained from E16 ICR mouse embryos. Briefly, cerebral cortices were removed from mouse embryos and mechanically dissociated in PBS with glucose (18 mM). Neurons were then seeded onto poly-L-lysine (1 mg/mL)-coated 96-well plates at 5 × 10^4 cells/well in a B27 Plus Neuronal culture system (Thermo Fisher Scientific), supplemented with 2 mM glutamine, 5 μM mercaptoethanol, 100 U/mL penicillin and 100 μg/mL streptomycin. The cultured neurons were maintained in a humidified incubator at 37 °C with 5% CO2 for 7 days prior to use.
as §1

Assay [4] relates to U87-MG cells. The assay can be described thus: LIF production into conditioned media (ELISA), U87-MG. The class given is cell-based, human.
The next assay concerns ERK in SK-N-MC cells. Type of assay: cell-based, human. The protocol:
(§2) These conditioned media were either immediately applied to SK-N-SH/SK-N-MC cells (80–100% confluence) in 6-well plates for 15 min, or subjected to heat treatment on a 96 °C heat block for 5 min, and then cooled to 37 °C before they were applied to the SK-N-SH/SK-N-MC cells for 15 min. […] For the SK-N-MC-derived conditioned media, SK-N-MC cells (80–100% confluence) in a 10 cm culture dish were serum-starved in 10 mL of MEM (without FBS), with 1 mL of the resulting conditioned medium being collected at indicated time points (15 min, 1 h, 3 h, 6 h). Simultaneously, U87-MG cells (80–100% confluence) in 12-well plates were serum-starved in MEM for 6 h, followed by pretreatment of […] (5 μM, 15 min), and then challenged with the SK-N-MC-derived conditioned media (mentioned above) for 10 min before cell lysis. […]
(§3) SDS-PAGE and Western blotting were performed as described in our previous studies. […] The amount of protein in each sample was determined by detergent compatible (DC) protein assay according to the supplier’s instruction (Bio-Rad, Hercules, CA, USA). […] Resolved proteins were detected by specific primary antibodies and horseradish peroxidase-conjugated secondary antisera. The level of β-actin was determined as an internal control.

The next assay has as its system ERK in SK-N-SH cells. Type of assay: cell-based, human. Here is the method: as §2, §3
Assay [5] concerns STAT3 in SK-N-MC cells. Kind of assay: STAT3 Tyr705 phosphorylation in SK-N-MC by conditioned media from agonist-treated U87-MG. Type of assay: cell-based, human. The protocol:
as §2, §3

For assay [6], the system named is melatonin MT1 receptor with Gα16. Type of assay: cell-based, human. The protocol:
Supplementary Methods (for Supplementary Figures) […]
(Merck Millipore, MA, USA). HEK293 cells (80-100% confluence in 6-well plates) stably expressing MT1R alone or together with Gα16 as described previously [Ref. 21] were treated with 1 μM of melatonin (Tocris Bioscience, Minneapolis, MN) in 1 mL of MEM per well without FBS for 24 h. The resulting conditioned media were collected in 1.5 mL microcentrifuge tubes, with the presence of secretory LIF and IL-6 quantified by ELISA assays (Abcam, Cambridge, UK) according to the manufacturer’s […]

The test system of assay [7] is STAT3 in primary mouse cortical neurons. Kind of assay: STAT3 phosphorylation by direct application of cytokine, primary cortical neurons. The following applies: 0–100 ng/mL, 15 min. The class given is cell-based. Here is the method:
(§4) To determine if the experimental cells were readily responsive to LIF and IL-6, SK-N-MC cells, mouse primary neurons and primary astrocytes (80–100% confluence in 12-well plates) were serum-starved for 6 h, followed by treatment of indicated concentrations (0–100 ng/mL) of LIF and IL-6 for 15 min. The subsequent cell lysates were subjected to SDS-PAGE and Western blot with specific antibodies to detect stimulatory phosphorylated forms and the total amounts of STAT3.
as §3, with “control. […] Chemiluminescence signals were then detected by ChemiDoc imaging systems (Bio-Rad, Hercules, CA, USA) with the subsequent band densities quantified by ImageJ (https://imagej.net/ij/) analysis software (National Institutes of Health, MD, USA). […]” for “control.”

Assay [8] has as its system STAT3 in SK-N-MC cells. The assay can be described thus: STAT3 phosphorylation by direct application of cytokine, SK-N-MC. The class given is cell-based, human. The following applies: LIF 0–100 ng/mL, 15 min. Here is the method:
as §4
as §3, with “control. […] Chemiluminescence signals were then detected by ChemiDoc imaging systems (Bio-Rad, Hercules, CA, USA) with the subsequent band densities quantified by ImageJ (https://imagej.net/ij/) analysis software (National Institutes of Health, MD, USA). […]” for “control.”

The subject of assay [9] is STAT3 in primary mouse astrocytes. Kind of assay: STAT3 phosphorylation by direct application of cytokine, primary astrocytes. The class given is cell-based. The following applies: 0–100 ng/mL, 15 min. Here is the method:
as §4
SDS-PAGE and Western blotting were performed as described in our previous studies. In brief, cells in 6-well plates (5 × 10^5 cells/well) were lysed in 500 μL of ice-cold lysis buffer (50 mM Tris-HCl at pH 7.5 containing 100 mM NaCl, 5 mM EDTA, 40 mM NaP2O7, 1% Triton X-100, 1 mM dithiothreitol, 200 μM Na3VO4, 100 μM phenylmethylsulfonyl fluoride, 2 μg/mL leupeptin, 4 μg/mL aprotinin, and 0.7 μg/mL pepstatin) and then gently shaken for 30 min. The amount of protein in each sample was determined by detergent compatible (DC) protein assay according to the supplier’s instruction (Bio-Rad, Hercules, CA, USA). Clarified lysates (30 μg protein per sample) were resolved on 12% SDS-polyacrylamide gels and then transferred to nitrocellulose membranes (Westborough, MA, USA). Resolved proteins were detected by specific primary antibodies and horseradish peroxidase-conjugated secondary antisera. The level of β-actin was determined as an internal control. Immunoblots were visualized by chemiluminescence with the WesternBright ECL reagents from Advansta (San Jose, CA, USA). Chemiluminescence signals were then detected by ChemiDoc imaging systems (Bio-Rad, Hercules, CA, USA) with the subsequent band densities quantified by ImageJ (https://imagej.net/ij/) analysis software (National Institutes of Health, MD, USA). All primary antibodies which specifically recognize B1R, B2R, ERK, p-ERK, p38, p-p38, JNK, p-JNK, STAT3, p-STAT3, and β-actin were applied at 1:1000 dilution for Western blotting.

The subject of another assay is STAT3 in U87-MG cells. The assay can be described thus: STAT3 phosphorylation by direct application of cytokine, U87-MG. The class given is cell-based, human.

Like-named read-outs stand apart in the source and are kept apart here. Where a SMILES comes first, the peptide text is derived from it.

For orientation: EC50 means the midpoint of the concentration-response curve. Low values mean higher potency in that assay, high ones lower potency in that assay. Take `N=C(N)NCCC[C@H](NC(=O)[C@H](Cc1ccccc1)NC(=O)[C@@H]1CCCN1C(=O)[C@H](CO)NC(=O)[C@H](Cc1ccccc1)NC(=O)CNC(=O)[C@@H]1CCCN1C(=O)[C@@H]1CCCN1C(=O)[C@@H](N)CCCNC(=N)N)C(=O)O` [bradykinin] (H-RPPGFSPFR-OH): the EC50 with primary astrocytes [1] came to 23 nM.

Turning to `C[N+](C)(C)CCOC(N)=O` [carbachol], the “intracellular Ca2+ response” value with U87-MG cells [2] (10 μM agonist, U87-MG, FLIPR, Fluo-4, 3 min, n = 3) was “lack of a carbachol-stimulated Ca^2+ response”; in the assay with 1321-N1 cells (10 μM agonist, 1321-N1, FLIPR, Fluo-4, 3 min, n = 3), “elicited Ca^2+ responses in 1321-N1 cells”. Besides, the “Ca2+ response, fold stimulation” value with 1321-N1 cells (10 μM agonist, 1321-N1, FLIPR) was “over 100 fold”. In the assay with primary astrocytes [3], the “intracellular Ca2+ mobilization” value is listed as “significantly stimulated Ca^2+ mobilization”. Moreover, the LIF production entry in the assay with U87-MG cells [4] (10 μM agonist, 24 h, U87-MG, ELISA, n = 3) is reported as “failed to induce the production of LIF”.

For the compound `NCCc1c[nH]cn1` [histamine], the “Ca2+ response, fold stimulation” value in the assay with U87-MG cells [2] and in the assay on 1321-N1 cells was “over 100 fold” in each case. Moreover, the “intracellular Ca2+ response” value with U87-MG cells [2] and in the assay on 1321-N1 cells was “significantly stimulated intracellular Ca^2+ responses” each time. For the same compound, the “ERK phosphorylation by conditioned media” value in the assay on ERK in SK-N-MC cells and in the assay with ERK in SK-N-SH cells was “little or no change in ERK phosphorylation” each time. In addition, the “STAT3 Tyr705 phosphorylation by conditioned media” value in the assay with STAT3 in SK-N-MC cells [5] is reported as “stimulated STAT3 Tyr^705 phosphorylation”. The LIF production result in the assay on U87-MG cells [4] is given as “significantly elevated the levels of LIF”.

As for `COc1ccc2[nH]cc(CCNC(C)=O)c2c1` [melatonin], in assay [6], the IL-6 release result was “induced the release of both LIF and IL-6”; the LIF release entry was “induced the release of both LIF and IL-6”.

leukemia inhibitory factor [LIF]: the STAT3 phosphorylation result in [7] is reported as “dose-dependently stimulated STAT3 phosphorylation”; in the assay on STAT3 in SK-N-MC cells [8], “dose-dependent manner”; in assay [9] (n = 3) it was “readily stimulated by LIF in a dose-dependent manner”; in the assay on STAT3 in U87-MG cells it was “readily stimulated by LIF in a dose-dependent manner”. Further, the “STAT3 response compared with IL-6” value in assay [7] is reported as “apparently stronger than that induced by IL-6”. Besides, the “potency in STAT3 phosphorylation compared with IL-6” value in [9] is given as “even more potent than IL-6”.
